Results on 1 compound are retold here after patent publication US7037656B2, “Methods and compositions for identifying ligands for nuclear receptors” (priority 2000, dated 2006).

Holding throughout (assay): Yeast 6x EcRE-lacZ β-galactosidase transactivation assay
In assay [1] the target is T1, Dm ΔN EcR + DmUSP + GRIP1 (Drosophila melanogaster, UniProt P34021).
T1 construct: ubiquitin (human, 76 aa) (N, cleaved yes); expressed in transfected cells
It is filed as cell-based. The conditions noted are these: RH 5992 10 μM, 4 hours, DMSO control 0.424. How it is done:
(§1) Briefly, yeast cells are cultured in 5 mL of YPD liquid medium overnight at 30° C. The cell culture was diluted 1:20 in YPD media and further grown until cell density reached an O.D of 0.6. at OD600. The cells were pelleted by centrifugation and washed with 10 mL of TE+0.1M lithium acetate. Cells are then resuspended in 10 mL TE+0.1M lithium acetate and incubated at 30° C. for 1 hour. Cells are collected and resuspended in 0.5 mL of TE+ 0.1M lithium acetate. Aliquots of cells (50 μL), were incubated for 15 minutes at 30° C. with 1–2 μg plasmid DNA in the presence of 5 μg of denatured salmon sperm DNA as DNA carrier. In the case of co-transformation, the indicated plasmids were added simultaneously. 50% polyethyleneglycol of molecular weight 4000, diluted in TE, was added to a final concentration of 35%. DMSO was added to the transformation solution simultaneously to a final concentration 3%. The samples were mixed well by vortexing and incubated for an additional 30 minutes at 30° C. The cell mixture is then heated for 15 minutes at 42° C. Cells were then collected and plated onto appropriate yeast selective media. Transformants of 4 plasmids are selected on the complete media without tryptophan, uracil, leucine and histidine.
(§2) The yeast cells grown overnight in selective liquid media at 30° C. were diluted in prewarmed liquid selective media to 0.1 at OD600 (ODculture). 100 μl of the cell culture was spiked to each well of a.96-well microtiter plate. Ligand (2 μl diluted in DMSO) was added to each well giving a final concentration of DMSO of 2%. As a control, 2 μl of DMSO were also added to additional test wells. The final concentration of the tested compounds in the media is 10 μM. The cells were incubated in the presence of ligand in a shaker at 30° C. After 4 hours of incubation, 100 μl of 2× “Z” Sarcosine-ONPG buffer (120 mM Na2HPO4, 80 mM NaH2PO4, 20 mM KCl, 2 mM MgSO4, 100 mM beta-mercaptoethanol (Sigma), pH 7.0, 0.4% lauroyl sarcosine (Sigma), 4 mg/mL ONPG (Diagnostic Chemicals limited) was added to each well and the plate was further incubated at 37° C. The 2× “Z” Sarcosine-ONPG buffer is freshly prepared or stored at −20° C. prior to use. After incubation at 37° C. for 1 hour. The reaction was stopped by adding 100 μL of quenching solution 0.5 M Na2CO3 and OD405 (ODreaction) and beta-galactosidase activity was measured in a micro plate reader (Biotek) at a wave length of 405–450 nanometers. The effect of copper on enhancement of the transactivation response mediated by the ligands tested was studied by adding CuSO4 to the media to a final concentration of 10 μM.
(§3) Using the transformation method set forth above, yeast were co-transformed with a reporter gene as shown in FIG. 2 and the expression vector encoding the full-length D. melanogaster ecdysone receptor, DmEcR (FIG. 3A) in the presence or absence of the Dm EcR heterodimer partner, DmUSP (FIG. 4A). Transformed cells were incubated with DMSO alone as a control or with a proprietary ecdysone receptor ligand (Rohm & Haas compound RH5992—tebufenozide) at final concentration 10 μM for 4 hours. The samples were then assayed for β-galactosidase activity as described above. […] As the N-terminal portion of the Dm EcR receptor is reported to play a role in ligand independent transactivation, an expression vector containing an N-terminal deletion in the EcR was constructed (see FIG. 3B) and assessed in the β-galactosidase assays described above. […] Restoration of ligand dependent transactivation was observed only when the DmΔN EcR, DmUSP and co-activator GRIP1 were coexpressed. See Table I. The data obtained indicate that the efficiency of ligand-dependent transactivation of the ecdysone receptor requires both heterodimer formation between EcR and USP, and proper interaction with co-activator GRIP1. […]

Assay [2] addresses T2, Dm ΔN EcR + Dm ΔA/B USP + GRIP1 (Drosophila melanogaster, UniProt P34021).
T2 construct: ubiquitin (human, 76 aa) (N, cleaved yes); expressed in transfected cells
It is filed as cell-based. To be noted: RH 5992 10 μM, 4 hours, DMSO control 0.340. How it is done: as §1, §2, §3

A further assay concerns the target T3, Dm EcR + DmUSP (Drosophila melanogaster, UniProt P34021).
T3 construct: ubiquitin (human, 76 aa) (N, cleaved yes); expressed in transfected cells
It is filed as cell-based. To be noted: RH 5992 10 μM, 4 hours, DMSO control 2.091. How it is done: as §1, §2, §3

The target in a further assay is T4, Dm EcR-B1 (Drosophila melanogaster, UniProt P34021).
T4 construct: ubiquitin (human, 76 aa) (N, cleaved yes); expressed in transfected cells
It is filed as cell-based. To be noted: RH 5992 10 μM, 4 hours, DMSO control 1.090. The method, then: as §1, §2, §3

The target in a further assay is T5, Dm ΔN EcR + RXRγ + GRIP1 (Drosophila melanogaster, UniProt P34021).
T5 construct: ubiquitin (human, 76 aa) (N, cleaved yes); expressed in transfected cells
It is filed as cell-based, Drosophila melanogaster; mouse. To be noted: RH 5992 10 μM, 4 hours, DMSO control 0.364. How it is done: The human RXR α (Genbank accession number X52773), mouse RXR β (Genbank accession number X66224) or mouse RXR γ (Genebank accession number X66225) subtypes were expressed in yeast-E. coli multicopy 2μ expression plasmids under regulation of CUP1 promoter with the LEU2 selective marker (1).
Briefly, yeast cells are cultured in 5 mL of YPD liquid medium overnight at 30° C. The cell culture was diluted 1:20 in YPD media and further grown until cell density reached an O.D of 0.6. at OD600. The cells were pelleted by centrifugation and washed with 10 mL of TE+0.1M lithium acetate. Cells are then resuspended in 10 mL TE+0.1M lithium acetate and incubated at 30° C. for 1 hour. Cells are collected and resuspended in 0.5 mL of TE+ 0.1M lithium acetate. […]
(§4) Using the transformation method set forth above, yeast were co-transformed with a reporter gene as shown in FIG. 2 and the expression vector encoding the full-length D. melanogaster ecdysone receptor, DmEcR (FIG. 3A) in the presence or absence of the Dm EcR heterodimer partner, DmUSP (FIG. 4A). […] As the N-terminal portion of the Dm EcR receptor is reported to play a role in ligand independent transactivation, an expression vector containing an N-terminal deletion in the EcR was constructed (see FIG. 3B) and assessed in the β-galactosidase assays described above. […]

In assay [3] the target is T6, Dm ΔN EcR +Aa USPb-form + GRIP1 (Drosophila melanogaster, UniProt P34021).
T6 construct: ubiquitin (human, 76 aa) (N, cleaved yes); expressed in transfected cells
It is filed as cell-based, Drosophila melanogaster; Aedes aegypti. To be noted: RH 5992 10 μM, 4 hours, DMSO control 0.251. How it is done: as §1, with “DMSO was added to the transformation solution simultaneously to a final concentration 3%. The samples were mixed well by vortexing and incubated for an additional 30 minutes at 30° C. The cell mixture is then heated for 15 minutes at 42° C. Cells were then collected and plated onto appropriate yeast selective media. Transformants of 4 plasmids are selected on the complete media without tryptophan, uracil, leucine and histidine.” left out
as §4

Assay [4] deals with T7, Dm ΔN EcR +Aa USPa-form + GRIP1 (Drosophila melanogaster, UniProt P34021).
T7 construct: ubiquitin (human, 76 aa) (N, cleaved yes); expressed in transfected cells
Format: cell-based, Drosophila melanogaster; Aedes aegypti. To be noted: RH 5992 10 μM, 4 hours, DMSO control 0.243. How it is done: as §1, with “DMSO was added to the transformation solution simultaneously to a final concentration 3%. The samples were mixed well by vortexing and incubated for an additional 30 minutes at 30° C. The cell mixture is then heated for 15 minutes at 42° C. Cells were then collected and plated onto appropriate yeast selective media. Transformants of 4 plasmids are selected on the complete media without tryptophan, uracil, leucine and histidine.” left out
as §4

T7 sequence (P34021 221-878, stated change not applied): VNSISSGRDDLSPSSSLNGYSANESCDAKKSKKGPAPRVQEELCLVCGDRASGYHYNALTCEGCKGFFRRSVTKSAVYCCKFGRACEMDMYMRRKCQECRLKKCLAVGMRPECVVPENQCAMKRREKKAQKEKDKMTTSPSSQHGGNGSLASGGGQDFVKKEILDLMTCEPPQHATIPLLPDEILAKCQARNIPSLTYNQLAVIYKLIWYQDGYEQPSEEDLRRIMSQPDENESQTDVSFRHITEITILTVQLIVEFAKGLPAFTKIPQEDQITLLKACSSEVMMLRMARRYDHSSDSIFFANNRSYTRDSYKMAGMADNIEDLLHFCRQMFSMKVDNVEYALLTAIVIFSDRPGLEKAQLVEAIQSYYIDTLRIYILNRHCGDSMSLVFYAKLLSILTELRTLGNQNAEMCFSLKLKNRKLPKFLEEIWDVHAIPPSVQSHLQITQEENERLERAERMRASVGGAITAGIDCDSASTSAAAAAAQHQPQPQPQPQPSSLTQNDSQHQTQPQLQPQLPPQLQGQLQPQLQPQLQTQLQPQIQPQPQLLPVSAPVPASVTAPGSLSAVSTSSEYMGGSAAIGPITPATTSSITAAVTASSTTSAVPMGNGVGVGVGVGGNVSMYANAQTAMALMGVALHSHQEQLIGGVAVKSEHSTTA
T2 sequence (P34021 221-878, stated change not applied): as above
T2 sequence (P20153 with tags, fused parts or gaps partner): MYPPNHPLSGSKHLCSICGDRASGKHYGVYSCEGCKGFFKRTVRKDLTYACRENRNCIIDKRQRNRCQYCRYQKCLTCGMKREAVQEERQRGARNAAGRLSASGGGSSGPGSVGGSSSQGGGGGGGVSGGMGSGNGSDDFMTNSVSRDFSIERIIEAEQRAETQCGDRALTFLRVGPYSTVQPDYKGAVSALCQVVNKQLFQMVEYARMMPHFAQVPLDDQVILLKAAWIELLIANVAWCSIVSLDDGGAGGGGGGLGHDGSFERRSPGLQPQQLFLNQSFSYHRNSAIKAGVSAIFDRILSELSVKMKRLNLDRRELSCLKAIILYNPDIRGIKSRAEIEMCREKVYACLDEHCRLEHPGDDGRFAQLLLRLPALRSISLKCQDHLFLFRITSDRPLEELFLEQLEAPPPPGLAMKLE
T6 sequence (P34021 221-878, stated change not applied): as the sequence (P34021 221-878, stated change not applied) above
T5 sequence (P34021 221-878 limits assumed, stated change not applied): as the sequence (P34021 221-878, stated change not applied) above
T5 sequence (P28705 whole entry partner): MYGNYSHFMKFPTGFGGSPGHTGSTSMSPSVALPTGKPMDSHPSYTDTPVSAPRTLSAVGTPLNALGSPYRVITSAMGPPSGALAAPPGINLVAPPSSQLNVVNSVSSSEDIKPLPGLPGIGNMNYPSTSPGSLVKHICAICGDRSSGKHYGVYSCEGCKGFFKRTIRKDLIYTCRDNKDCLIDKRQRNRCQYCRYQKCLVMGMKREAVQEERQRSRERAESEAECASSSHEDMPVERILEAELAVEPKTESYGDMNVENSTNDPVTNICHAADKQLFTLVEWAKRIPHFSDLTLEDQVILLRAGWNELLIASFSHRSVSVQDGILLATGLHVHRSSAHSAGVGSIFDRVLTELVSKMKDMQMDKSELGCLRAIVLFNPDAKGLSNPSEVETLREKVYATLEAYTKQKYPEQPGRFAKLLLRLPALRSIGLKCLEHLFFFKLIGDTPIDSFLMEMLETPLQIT
T5 sequence (Q61026 322-1121 partner limits assumed): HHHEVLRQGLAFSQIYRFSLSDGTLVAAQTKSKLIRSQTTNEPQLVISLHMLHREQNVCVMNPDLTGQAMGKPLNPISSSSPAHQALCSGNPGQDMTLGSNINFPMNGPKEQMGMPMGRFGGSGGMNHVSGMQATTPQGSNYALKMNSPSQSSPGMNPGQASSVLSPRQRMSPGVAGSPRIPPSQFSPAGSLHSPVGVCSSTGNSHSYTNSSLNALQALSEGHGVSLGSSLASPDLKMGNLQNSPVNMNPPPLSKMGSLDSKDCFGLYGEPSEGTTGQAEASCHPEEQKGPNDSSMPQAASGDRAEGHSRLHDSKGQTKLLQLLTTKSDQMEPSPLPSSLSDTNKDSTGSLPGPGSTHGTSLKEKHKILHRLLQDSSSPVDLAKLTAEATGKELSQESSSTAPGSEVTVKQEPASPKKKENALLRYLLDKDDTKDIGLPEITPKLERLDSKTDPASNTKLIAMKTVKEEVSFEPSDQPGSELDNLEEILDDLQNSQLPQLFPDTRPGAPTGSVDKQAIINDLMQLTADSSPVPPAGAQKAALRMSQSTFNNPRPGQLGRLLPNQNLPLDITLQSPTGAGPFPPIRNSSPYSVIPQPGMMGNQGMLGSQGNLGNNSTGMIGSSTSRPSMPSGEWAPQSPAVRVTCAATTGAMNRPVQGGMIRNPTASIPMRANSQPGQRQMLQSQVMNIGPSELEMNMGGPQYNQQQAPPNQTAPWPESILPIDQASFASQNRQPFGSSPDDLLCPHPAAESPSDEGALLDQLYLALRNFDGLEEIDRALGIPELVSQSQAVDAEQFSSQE
T1 sequence (P34021 221-878 limits assumed, stated change not applied): as the sequence (P34021 221-878, stated change not applied) above
T1 sequence (P20153 whole entry partner): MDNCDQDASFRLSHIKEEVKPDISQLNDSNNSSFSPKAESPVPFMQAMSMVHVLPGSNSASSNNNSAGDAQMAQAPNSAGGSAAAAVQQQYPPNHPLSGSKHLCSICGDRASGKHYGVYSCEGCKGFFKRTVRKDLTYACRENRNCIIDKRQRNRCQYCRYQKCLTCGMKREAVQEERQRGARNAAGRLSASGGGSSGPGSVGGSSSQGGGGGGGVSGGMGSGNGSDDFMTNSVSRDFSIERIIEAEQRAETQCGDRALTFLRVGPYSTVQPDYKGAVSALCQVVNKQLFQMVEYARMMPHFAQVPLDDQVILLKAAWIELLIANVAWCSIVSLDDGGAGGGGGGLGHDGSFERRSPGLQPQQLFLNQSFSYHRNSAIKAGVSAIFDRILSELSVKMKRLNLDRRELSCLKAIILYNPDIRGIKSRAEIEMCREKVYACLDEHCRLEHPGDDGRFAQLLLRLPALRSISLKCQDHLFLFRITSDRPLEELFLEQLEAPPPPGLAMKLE
T1 sequence (Q61026 322-1121 partner limits assumed): as the sequence (Q61026 322-1121 partner limits assumed) above
T4 sequence (P34021 whole entry): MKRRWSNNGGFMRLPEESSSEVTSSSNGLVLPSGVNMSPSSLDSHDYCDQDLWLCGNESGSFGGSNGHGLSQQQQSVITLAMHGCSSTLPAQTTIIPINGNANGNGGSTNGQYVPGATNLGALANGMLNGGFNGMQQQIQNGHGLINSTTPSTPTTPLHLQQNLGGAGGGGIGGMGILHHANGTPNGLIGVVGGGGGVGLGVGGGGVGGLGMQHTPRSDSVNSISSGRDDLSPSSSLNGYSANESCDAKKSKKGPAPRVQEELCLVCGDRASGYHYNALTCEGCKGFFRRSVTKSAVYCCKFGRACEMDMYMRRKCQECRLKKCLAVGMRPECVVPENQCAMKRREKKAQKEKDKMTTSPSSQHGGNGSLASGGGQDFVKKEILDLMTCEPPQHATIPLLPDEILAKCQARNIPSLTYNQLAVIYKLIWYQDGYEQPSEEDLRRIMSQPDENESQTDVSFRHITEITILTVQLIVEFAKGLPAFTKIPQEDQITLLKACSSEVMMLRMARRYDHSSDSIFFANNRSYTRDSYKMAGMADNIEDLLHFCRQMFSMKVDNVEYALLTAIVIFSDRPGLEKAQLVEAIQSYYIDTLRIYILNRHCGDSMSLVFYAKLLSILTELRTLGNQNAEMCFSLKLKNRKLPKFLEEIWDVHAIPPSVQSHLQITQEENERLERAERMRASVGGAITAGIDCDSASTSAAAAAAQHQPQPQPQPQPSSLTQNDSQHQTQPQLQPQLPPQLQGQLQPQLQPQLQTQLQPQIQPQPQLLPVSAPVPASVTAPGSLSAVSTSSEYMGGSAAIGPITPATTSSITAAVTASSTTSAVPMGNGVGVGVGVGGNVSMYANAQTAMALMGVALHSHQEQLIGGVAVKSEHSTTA
T3 sequence (P34021 whole entry): as above
T3 sequence (P20153 whole entry partner): as the sequence (P20153 whole entry partner) above

For the compound `CCc1ccc(C(=O)NN(C(=O)c2cc(C)cc(C)c2)C(C)(C)C)cc1` [RH 5992, tebufenozide], the β-galactosidase activity in assay [1] is on record as 2.537; in assay [2], 2.323; at Dm EcR + DmUSP it was 1.953; on Dm EcR-B1, 1.200; on Dm ΔN EcR + RXRγ + GRIP1, 1.283; in assay [3] it was 2.068. For the same compound, the β-galactosidase activity in assay [4] was 1.860.
